# Laboratory results published in patent US8778971B2, “Medicinal treatment of dermal diseases in companion animals” (Bridge Pharma, Inc., priority 2012, dated 2014).
# Marks after values point to notes of the source that are not given here.
# Experiments:
# histamine H1-receptors = histamine H1-receptors (Homo sapiens, UniProt P35367); test: H1 receptor binding, [3H]pyrilamine ligand; conditions: human recombinant receptors, read-out: H-1/IC50
# Experimental: H1 receptor binding studies were conducted utilizing human recombinant receptors. In the studies shown herein, affinities of the test compounds for histamine H1-receptors were assessed using a binding assay, where [^3H]pyrilamine was used as the ligand and the test compounds were used at increasing concentrations. The specific binding of the radioactive ligand to the receptor was defined as the difference between total binding and nonspecific binding, determined in the presence of excess unlabeled ligand.
# [1] = system: histamine-induced wheal response; test: Antihistaminic activity in vivo, intradermal histamine wheal; design: species or system rats; conditions: rat; for Histamine wheal area: 60 min before histamine; for Saline wheal area: histamine vehicle injection; for Histamine effect: histamine minus saline
# Experimental: Male rats (150-200 g) were fasted overnight and twelve hours after dorsal depilation, the animals were orally pretreated with the test compound(s). Four dorsal test areas were marked with permanent ink, carefully avoiding the area closest to the spine. […] Two intradermal injections of the vehicle for the histamine solution were also performed. […] Twenty minutes were allowed for the wheal response to fully develop, whereupon the animals were euthanized and the dorsal skin with the intradermal wheals were deflected. The blue spotted areas were measured in square millimeters and the duplicate wheal areas were averaged. […] The inhibition was calculated in percent difference from said baseline values.
# [2] = system: human leukocytes (buffy coat); test: Inhibition of A23187-stimulated histamine release from leukocytes; format: cell-based; conditions: for IC50: Homo sapiens, Leukocyte, 20 min, A23187 5 μM, 20 min/37° C., read-out: Inhibition of inflammatory mediator (histamine) release
# Experimental: In these studies, histamine was the marker compound for inflammatory mediators that are released from mast cells and other pro-inflammatory cells in patients with atopic inflammatory diseases. The inhibition of stimulated histamine release from human leukocytes (buffy coat) by test articles was studied. Leukocytes were obtained from healthy volunteers and histamine release was induced by incubation (20 min/37° C.) with the calcium ionophore A23187 (5 μM) in the presence or absence of a test article. Histamine was analyzed by enzyme-immune assays, using commercially available kits and a microplate reader (MRX, Dynatech). The test articles were evaluated, in duplicate, at five concentrations.
# croton oil-treated ears [3] = test: Croton oil ear inflammation, systemic (ip) administration; format: in vivo; conditions: mice, 10 mg/kg ip
# Experimental: In order to investigate the effects of systemic administration of the test compounds in dermal inflammation, a croton oil model was used as is known in the art. This test consists of topical application of 20 μl of 1.0% croton oil to each ear of male mice, weighing 28-32 g. […] Application of the croton oil results in an inflammatory response. The weight of croton oil-treated ears was determined and the percent increase in ear weight is calculated. Test articles were dosed systemically (ip). […] All results represent mean ear weights (±S.E.M.) from 10 ears.
# mice = test: Sedative effects in mice, physostigmine lethality test; conditions: for Sedated animals: mice
# Experimental: In short, physostigmine (1.0 mg/kg to 2.0 mg/kg, s.c.) generally results in 100% lethality when given to groups of mice (10 mice/group) transferred into a small volume of space. Mice administered a sedating drug prior to the physostigmine injection are protected from the stress and survive. In the present study, test compounds were given orally 60 minutes prior to physostigmine injection. The number of surviving (sedated) mice was counted 30 minutes after injection of the physostigmine dose.
# dogs = test: Sedative effects in dogs, cross-over oral dosing; format: in vivo; conditions: for Frequency of sedation: 20 mg/kg/day oral; for Sedation in dogs (in words): oral
# Experimental: Sedation studies in dogs were performed according to a cross-over protocol, where the dogs were administered once daily the test articles orally at a dose of 20 mg/kg bodyweight that in a previous toxicology study was marginally toxic in dogs with equal plasma concentrations of R-norketotifen and S-norketotifen.
# The test articles were administered in gelatin capsules and vehicle-capsules were empty. All dogs were healthy beagles (four males and two females), age 24-36 months, weighing 7.8-10.6 kg. The dogs were dosed at 9-10 AM and had been fasted overnight before dosing. There was a washout period of at least three days in all dogs between the tests. All assessments of sedation/sleepiness were made by a qualified (D.V.M.) scientist with extensive experience (>15 years) in studies with conscious laboratory dogs. The test articles were in the form of hydrogen fumarate salts.
# It had previously been observed that dogs rarely express sedation in response to oral administration of benzocycloheptathiophene compounds on the first day of dosing and the dogs were therefore administered the test articles for three consecutive days.
# rats = test: Acute toxicity, Up-and-Down Procedure; format: in vivo; conditions: RAT, hydrogen fumarate salts
# Experimental: Acute toxicological studies were performed in rats (Sprague-Dawley; M and F; 200-250 grams). The animal-sparing Up-and-Down Procedure (FDA, OECD) was used. Both oral and intravenous toxicity tests were performed.
# Both compounds were administered as hydrogen fumarate salts.
# croton oil-treated ears [4] = test: Modified croton oil ear inflammation, topical cream; format: in vivo; conditions: mice, 1.0% cream topical
# Experimental: In order to investigate the effects of topical administration of the test compounds in dermal inflammation, a modified croton oil model was used. […] The cream was then removed and a solution of 1% croton oil in 20 μl acetone was applied to both ears. […] Cream was wiped from the ears and ears were removed and weighed. […] All results represent mean ear weights (±S.E.M.) from 8 ears.
# [5] = system: histamine-induced pruritus; test: Histamine-induced pruritus, topical cream; format: in vivo; conditions: mice, 1.0% cream topical 60 min before histamine
# Experimental: Antipruritic effects were tested in vivo in CD-1 female mice aged 10-12 weeks, according to methods known in the art. The hair was clipped over the rostral part of the back at the interscapular level of the mice one day before dosing. Before testing, the mice were placed in individual clear plastic cages for at least one hour for acclimation. […] Lanolin was weighed and liquified by submerging the vessel containing lanolin in hot water. While the lanolin was liquid, it was rapidly nixed (by vortexing) with the 2.5% norketotifen solution in ethanol, resulting in a 1.0% solution. […] A cream containing 60% lanolin/40% ethanol served as control.
# Candida albicans = test: Antimicrobial test, plate count; format: cell-based; conditions: 0.035% norketotifen, within 7 days, from 500,000
# Experimental: (§1) Studies were performed to evaluate possible antimicrobial activities of norketotifen at various concentrations and various pHs. […]. The standard microbial solutions of norketotifen contained the following excipients: Sodium citrate (0.3%), propylene glycol (1.75%), methylparaben (0.03%), propylparaben (0.01%), sterile water (as diluent).
# (§2) The microorganisms were inoculated into 50 mL centrifuge tubes containing 10 mL of test sample at T=0. One (1) mL was aliquoted from each centrifuge tube for each of the following 4 weeks (except at 21 days). The log reduction was determined by the plate count method after 7, 14 and 28 days by diluting in DEB (D/E neutralizing Broth) from 10^−1 to 10^−4 for bacteria. Bacterial plates were poured with SCDA (Soybean Casein Digest Agar) and incubated at 32.5±2.5° C. for 3-5 days
# Staphylococcus aureus = test: Antimicrobial test, plate count; format: cell-based; conditions: 0.035% norketotifen, within 7 days, from 750,000
# Experimental: as §1, §2
# Malassezia pachydermatis = test: Antimicrobial test, Malassezia study; format: cell-based; conditions: after 24 hours
# Experimental: The test article (norketotifen) was weighed and diluted into PBS to final concentrations of 0.210% and 0.035% before use. A 5 mL volume of the Test Article was aliquoted to a sterile 15 mL tube and the Malassezia sp (for example M. pachydermatis) were added at target concentrations of approx. 1.0×10^6 CFU/mL. The resulting mixture was vortexed thoroughly and incubated at room temperature for 7 days. A 0.500 mL aliquot of control and test tubes were harvested in 9.5 mL of D/E broth and any surviving test microorganisms were enumerated per standard dilution and plating techniques. Reductions were compared to a PBS Control at Time Zero and replicate tests were performed.
# [6] = Solubility of norketotifen in non-aqueous solvents; format: physicochemical
# Experimental: The hydrophobic ointment was prepared by dissolving norketotifen in propylene glycol. […] Next, glyceryl stearate, cetyl alcohol, and white petrolatum were added to a suitable container and heated to 65-70° C. This heating step melts the surfactants and the petrolatum. Next, norketotifen solution was slowly added and the composition mixed until the solvent was dispersed. Finally, the composition was cooled with mixing to allow the ointment to thicken.
# [7] = oral 10 mg/kg, versus vehicle baseline
# Sequence of histamine H1-receptors (P35367 whole entry): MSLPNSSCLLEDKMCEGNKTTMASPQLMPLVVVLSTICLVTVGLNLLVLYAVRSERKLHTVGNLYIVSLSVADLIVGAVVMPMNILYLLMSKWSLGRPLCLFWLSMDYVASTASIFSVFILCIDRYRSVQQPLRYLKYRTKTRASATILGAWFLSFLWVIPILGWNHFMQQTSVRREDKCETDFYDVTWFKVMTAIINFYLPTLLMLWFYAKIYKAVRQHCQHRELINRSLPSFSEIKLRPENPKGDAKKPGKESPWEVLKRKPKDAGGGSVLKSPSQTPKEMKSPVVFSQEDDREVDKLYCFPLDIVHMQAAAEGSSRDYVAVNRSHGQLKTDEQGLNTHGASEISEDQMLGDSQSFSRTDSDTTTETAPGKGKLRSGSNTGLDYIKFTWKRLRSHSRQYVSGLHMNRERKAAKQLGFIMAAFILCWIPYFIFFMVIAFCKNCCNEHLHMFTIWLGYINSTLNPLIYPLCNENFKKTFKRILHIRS
compound,measurement,setting,value
"O=C1Cc2ccccc2C(=C2CCNCC2)c2ccsc21 (racemic) [Norketotifen, (RS)-4-(piperidylidene)-9,10-dihydro-4H-benzo-(4,5)-cyclohepta-(1,2-b) thiophene-10-one]",IC50,histamine H1-receptors,0.011 µM
same,Histamine wheal area,[1]; oral 1.0 mg/kg,114 ± 8 mm^2
same,Saline wheal area,[1]; oral 1.0 mg/kg,22 ± 1 mm^2
same,Histamine effect,[1]; oral 1.0 mg/kg,92 mm^2
same,inhibition at 1 mg/kg,"[1]; oral 1.0 mg/kg, versus vehicle baseline",2%
same,Histamine wheal area,[1]; oral 10 mg/kg,39 ± 2 mm^2
same,Saline wheal area,[1]; oral 10 mg/kg,22 ± 1 mm^2
same,Histamine effect,[1]; oral 10 mg/kg,17 mm^2
same,inhibition at 10 mg/kg,[1]; [7],82%
same,Histamine wheal area,[1]; oral 50 mg/kg,10 ± 1 mm^2
same,Saline wheal area,[1]; oral 50 mg/kg,12 ± 1 mm^2
same,Histamine effect,[1]; oral 50 mg/kg,0 mm^2
same,inhibition at 50 mg/kg,"[1]; oral 50 mg/kg, versus vehicle baseline",100%
same,IC50,[2],9.2 µM
same,Times more potent than ketotifen as inhibitor of histamine release,[2]; pro-inflammatory cells,approximately 10 times
same,Average Ear weight ±SEM,croton oil-treated ears [3]; 90 min,34 ± 1 mg
same,Average Ear weight ±SEM,croton oil-treated ears [3]; 120 min,40 ± 1 mg
same,Sedated animals,mice; oral dose 83 mg/kg,3/10
same,Sedated animals,mice; oral dose 100 mg/kg,3/10
same,Sedated animals,mice; oral dose 150 mg/kg,3/10
same,Sedated animals,mice; oral dose 180 mg/kg,6/10
same,Sedation in mice (in words),mice; physostigmine lethality test,expressed sedative activity
same,Frequency of sedation,dogs; DAY 1,0/6
same,Frequency of sedation,dogs; DAY 2,0/6
same,Frequency of sedation,dogs; DAY 3,0/6
same,Sedation in dogs (in words),dogs,did not cause sedation in dogs
same,Acute toxicity (estimated LD50),rats; intravenous,10 to 15 mg/kg
same,Acute toxicity (estimated LD50),rats; oral,1500 to 2000 mg/kg
same,Average Ear Weight ±S.E.M,croton oil-treated ears [4]; 0 (predose) min after croton oil,36 ± 1 mg
same,Average Ear Weight ±S.E.M,croton oil-treated ears [4]; 30 min after croton oil,36 ± 1 mg
same,Average Ear Weight ±S.E.M,croton oil-treated ears [4]; 60 min after croton oil,37 ± 2 mg
same,Average Ear Weight ±S.E.M,croton oil-treated ears [4]; 90 min after croton oil,36 ± 2 mg
same,Bouts as % of Vehicle Controls,[5],42 ** %
same,Bouts/40 min,[5],61 ± 4
same,Bouts as % of Vehicle Controls,[5]; listed as RS-norketotifen,42%
same,Candida albicans count after incubation,Candida albicans,500 cells
same,Staphylococcus aureus count after incubation,Staphylococcus aureus,"90,000"
same,Reduction of Malassezia pachydermatis,Malassezia pachydermatis; 0.035% norketotifen,99.8%
same,Reduction of Malassezia pachydermatis,Malassezia pachydermatis; 0.2% norketotifen,99.995%
same,Solubility,"[6]; formulation G1009, mixture of two polyethylene glycols",about 1.0%
same,Solubility,[6]; in propylene glycol,about 1.0%
Clc1ccc2c(c1)CCc1cccnc1C2=C1CCNCC1 [DESLORATADINE],Sedated animals,mice; oral dose 150 mg/kg,0/10
CN(C)CCOC(c1ccccc1)c1ccccc1 [DIPHENHYDRAMINE],inhibition at 10 mg/kg,[1]; [7],31%
same,Sedated animals,mice; oral dose 50 mg/kg,5/10
same,Sedated animals,mice; oral dose 100 mg/kg,8/10
OCCOCCN1CCN(C(c2ccccc2)c2ccc(Cl)cc2)CC1 (centres unmarked) [HYDROXYZINE],Sedated animals,mice; oral dose 100 mg/kg,9/10
"CN1CCC(=C2c3ccccc3CC(=O)c3sccc32)CC1 [Ketotifen, 4-(1-methyl-4-piperidyline)-4H-benzo(4,5)-cyclohepta-(1,2-b) thiophene-10-one, reference compound]",IC50,[2],91 µM
same,Average Ear weight ±SEM,croton oil-treated ears [3]; 90 min,37 ± 1 mg
same,Average Ear weight ±SEM,croton oil-treated ears [3]; 120 min,42 ± 1 mg
same,Sedated animals,mice; oral dose 25 mg/kg,5/10
same,Sedated animals,mice; oral dose 50 mg/kg,8/10
same,Sedated animals,mice; oral dose 100 mg/kg,10/10
same,Frequency of sedation,dogs; DAY 1,0/6
same,Frequency of sedation,dogs; DAY 2,5/6
same,Frequency of sedation,dogs; DAY 3,5/6
same,Sedation in dogs (in words),dogs,causes sedation in dogs
same,Acute toxicity (estimated LD50),rats; intravenous,5 to 10 mg/kg
same,Acute toxicity (estimated LD50),rats; oral,<300 mg/kg
CCOC(=O)N1CCC(=C2c3ccc(Cl)cc3CCc3cccnc32)CC1 [LORATADINE],Sedated animals,mice; oral dose 150 mg/kg,1/10
COc1ccc(CN(CCN(C)C)c2ccccn2)cc1 [PYRILAMINE],Sedated animals,mice; oral dose 100 mg/kg,8/10
O=C1Cc2ccccc2C(=C2CCNCC2)c2ccsc21 [R-NORKETOTIFEN],Sedated animals,"mice; oral dose 100 mg/kg, 100 mg/kg",3/10
same,Sedated animals,"mice; oral dose 150 mg/kg, 150 mg/kg",3/10
O=C1Cc2ccccc2C(=C2CCNCC2)c2ccsc21 [S-NORKETOTIFEN],Sedated animals,"mice; oral dose 100 mg/kg, 100 mg/kg",0/10
same,Sedated animals,"mice; oral dose 150 mg/kg, 150 mg/kg",0/10
CC(C)(C)c1ccc(C(O)CCCN2CCC(C(O)(c3ccccc3)c3ccccc3)CC2)cc1 (centres unmarked) [TERFENADINE],Sedated animals,mice; oral dose 150 mg/kg,0/10
